Measured values reported in patent US9303032B2, “2-(pyridin-2YL)-1, 7-diaza-spiro [4.4] nonane-6-one compound as voltage-gated sodium channels modulator” (CONVERGENCE PHARMACEUTICALS LIMITED, priority 2011, dated 2016).
Counter-ions that a name gives are not always drawn.

Biological target: T1, hNaV1.7 (Homo sapiens, UniProt Q15858)
T1 construct: expressed in transfected cells; host or cells: HEK293
Assay: QPatch NaV1.7 assay
Type: cell-based
Settings: HEK293-hNaV1.7 cells; holding potential −90 mV, most channels in closed state; read-out: QP Nav1.7 −90 mV pIC50 (converted)
Experimental: The compounds of the invention were tested in a QPatch NaV1.7 assay.
HEK293-hNaV1.7 cells were grown in DMEM-F12+10% FBS culture media at 37° C. At a confluency of 50-70% cells were dissociated from culture flasks & triturated to ensure unicellular cell suspension; cell density was measured & adjusted to 2-3×10^6 cells/ml. Recordings were obtained using QPatch16×. The external solution was (in mM): NaCl, 128; KCl, 5; MgCl2, 2; CaCl2, 2; Glucose, 30; HEPES, 15; pH 7.3, 305-315 mOsm. Following seal formation and whole-cell access using internal solution (containing in mM: CsF, 135; EGTA/CsOH, ⅕; HEPES 10; NaCl, 10; pH 7.3, 310-320 mOsM), voltage pulse protocols were applied. Initially a steady state inactivation voltage protocol was used to determine the half-maximal voltage for steady state inactivation (V1/2 SSI). Two holding voltages were used to determine test drug inhibition: −90 mV, where most of the channels are in a closed state; and V1/2 SSI, where half of the channels are inactivated. Currents were elicited every 10 seconds by stepping to a membrane potential of 0 mV for 20 ms. Four-point cumulative concentration responses were derived by determining the peak current amplitude at each concentration of test drug over 120 second application. Curves were fitted with the Hill equation yielding pIC50 values at −90 mV and V1/2 SSI holding potentials.

T1 sequence (Q15858 whole entry): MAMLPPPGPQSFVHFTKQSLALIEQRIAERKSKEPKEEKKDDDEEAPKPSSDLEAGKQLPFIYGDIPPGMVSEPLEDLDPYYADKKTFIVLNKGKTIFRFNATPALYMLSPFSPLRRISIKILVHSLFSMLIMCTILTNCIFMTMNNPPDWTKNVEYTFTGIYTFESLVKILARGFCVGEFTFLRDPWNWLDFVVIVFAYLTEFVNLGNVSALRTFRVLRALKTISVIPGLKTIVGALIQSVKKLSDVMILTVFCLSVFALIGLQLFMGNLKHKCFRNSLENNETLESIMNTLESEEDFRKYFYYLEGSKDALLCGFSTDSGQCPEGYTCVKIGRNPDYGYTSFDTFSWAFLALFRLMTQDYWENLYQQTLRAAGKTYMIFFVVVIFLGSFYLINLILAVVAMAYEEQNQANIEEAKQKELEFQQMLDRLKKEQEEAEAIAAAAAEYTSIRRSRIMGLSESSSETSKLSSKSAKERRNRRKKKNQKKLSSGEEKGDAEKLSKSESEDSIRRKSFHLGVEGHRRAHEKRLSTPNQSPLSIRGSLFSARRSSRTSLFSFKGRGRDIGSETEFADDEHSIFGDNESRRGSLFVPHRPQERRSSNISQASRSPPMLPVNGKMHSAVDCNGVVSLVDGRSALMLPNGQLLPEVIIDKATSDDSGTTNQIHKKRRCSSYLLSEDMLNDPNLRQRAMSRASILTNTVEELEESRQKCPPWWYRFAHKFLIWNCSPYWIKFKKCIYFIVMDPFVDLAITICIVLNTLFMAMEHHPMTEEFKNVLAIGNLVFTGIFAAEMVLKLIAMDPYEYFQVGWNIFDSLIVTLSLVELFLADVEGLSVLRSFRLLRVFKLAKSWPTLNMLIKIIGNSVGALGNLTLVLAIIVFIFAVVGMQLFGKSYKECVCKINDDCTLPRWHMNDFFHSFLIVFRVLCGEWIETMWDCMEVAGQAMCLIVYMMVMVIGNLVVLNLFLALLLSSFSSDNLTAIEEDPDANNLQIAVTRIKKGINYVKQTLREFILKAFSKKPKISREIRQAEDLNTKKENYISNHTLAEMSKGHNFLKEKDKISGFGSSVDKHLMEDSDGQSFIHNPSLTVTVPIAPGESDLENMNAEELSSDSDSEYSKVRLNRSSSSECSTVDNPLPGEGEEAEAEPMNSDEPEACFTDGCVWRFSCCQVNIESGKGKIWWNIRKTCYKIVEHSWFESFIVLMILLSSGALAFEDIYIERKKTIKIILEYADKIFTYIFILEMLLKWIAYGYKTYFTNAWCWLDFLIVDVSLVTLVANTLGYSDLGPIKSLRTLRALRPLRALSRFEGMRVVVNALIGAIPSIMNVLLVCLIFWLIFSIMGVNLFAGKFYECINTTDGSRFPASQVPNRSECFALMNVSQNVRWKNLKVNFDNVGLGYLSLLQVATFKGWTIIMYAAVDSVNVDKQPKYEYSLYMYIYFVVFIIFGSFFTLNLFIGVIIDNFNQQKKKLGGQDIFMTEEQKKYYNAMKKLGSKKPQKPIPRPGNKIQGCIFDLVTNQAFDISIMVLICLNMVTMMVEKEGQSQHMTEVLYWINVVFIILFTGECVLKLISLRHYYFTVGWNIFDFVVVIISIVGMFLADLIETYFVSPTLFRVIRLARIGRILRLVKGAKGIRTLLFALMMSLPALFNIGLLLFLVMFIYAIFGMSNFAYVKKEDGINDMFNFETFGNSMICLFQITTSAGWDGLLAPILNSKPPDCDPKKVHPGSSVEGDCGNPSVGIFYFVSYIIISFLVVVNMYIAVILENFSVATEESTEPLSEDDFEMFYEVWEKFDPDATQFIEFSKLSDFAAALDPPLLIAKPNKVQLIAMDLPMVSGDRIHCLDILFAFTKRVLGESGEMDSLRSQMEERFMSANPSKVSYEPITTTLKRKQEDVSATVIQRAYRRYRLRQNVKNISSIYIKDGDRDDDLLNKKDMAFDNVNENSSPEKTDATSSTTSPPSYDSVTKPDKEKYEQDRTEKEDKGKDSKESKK

Molecule `CN1CC[C@@]2(CC[C@H](c3cc(-c4cccc(OC(F)(F)F)c4)ccn3)N2)C1=O` [Example 1, (2R,5S)-7-Methyl-2-[4-[3-(trifluoromethoxy)phenyl]-2-pyridyl]-1,7-diazaspiro[4.4]nonan-6-one hydrochloride] has an IC50 of 50.1 µM.
